From PubChem BioAssay (NCI)
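Grown in 96-well plates, cells were treated for 48 hours with each compound at five concentrations. Insufficient inhibition: endpoint recorded as highest concentration tested. GI50: concentration for 50% inhibition of growth. Definition used: TGI = concentration required for complete inhibition of growth.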

Columns and labels:
Assay in all cases: NCI-60 cell line screen, 48 h
[1] = tested on: RPMI-8226 leukemia
[2] = tested on: SK-MEL-28 melanoma
[3] = tested on: T-47D breast
[4] = tested on: MALME-3M melanoma
[5] = tested on: CCRF-CEM leukemia
[6] = tested on: SN12C renal
[7] = tested on: HCC-2998 colon
[8] = tested on: A549 NSCLC
[9] = tested on: SF-539 CNS
[10] = tested on: MDA-MB-435
[11] = tested on: SNB-19 CNS
[12] = tested on: SR leukemia
[13] = tested on: DU-145 prostate
[14] = tested on: K-562 leukemia
[15] = tested on: ACHN renal
[16] = tested on: BT-549 breast
[17] = tested on: NCI-H522 lung
[18] = tested on: U251 CNS
[19] = tested on: PC-3 prostate
[20] = tested on: OVCAR-4 ovarian
[21] = tested on: HT29 colon
[22] = tested on: KM12 colon
[23] = tested on: OVCAR-5 ovarian
[24] = tested on: UO-31 renal
[25] = tested on: COLO 205 colon
[26] = tested on: SK-OV-3 ovarian
[27] = tested on: SNB-75 CNS
[28] = tested on: SF-295 CNS
[29] = tested on: SK-MEL-2 melanoma
[30] = tested on: HL-60(TB) leukemia
[31] = tested on: A498 renal
[32] = tested on: MOLT-4 leukemia
[33] = tested on: HOP-92 NSCLC
[34] = tested on: HS 578T breast
[35] = tested on: SF-268 CNS
[36] = tested on: M14 melanoma
[37] = tested on: NCI/ADR-RES ovarian
[38] = tested on: NCI-H23 lung
[39] = tested on: MCF7 breast
[40] = tested on: NCI-H460 lung
[41] = tested on: HCT-15 colon
[42] = tested on: HOP-62 NSCLC
[43] = tested on: NCI-H226 lung
[44] = tested on: SW-620 colon
[45] = tested on: IGROV1 ovarian
[46] = tested on: 786-0 renal
[47] = tested on: RXF 393 renal
[48] = tested on: UACC-257 melanoma
[49] = tested on: LOX IMVI melanoma
[50] = tested on: OVCAR-3 ovarian
[51] = tested on: UACC-62 melanoma
[52] = tested on: MDA-MB-231 breast
[53] = tested on: CAKI-1 renal
[54] = tested on: EKVX NSCLC
[55] = tested on: SK-MEL-5 melanoma
[56] = tested on: OVCAR-8 ovarian
[57] = tested on: HCT-116 colon
[58] = tested on: TK-10 renal

SMILES: O=C(O)COc1ccc(OCC(=O)O)cc1
- GI50 [1]: 0.343 µM
- TGI [1]: 6.76 µM
- GI50 [2]: 3.36 µM
- TGI [2]: 17 µM
- GI50 [3]: 0.449 µM
- TGI [3]: 9.31 µM
- GI50 [4]: 0.571 µM
- TGI [4]: 10.5 µM
- GI50 [5]: 0.2 µM
- TGI [5]: 21 µM
- GI50 [6]: 0.275 µM
- TGI [6]: 18 µM
- GI50 [7]: 1.5 µM
- TGI [7]: 6.82 µM
- GI50 [8]: 0.432 µM
- TGI [8]: 2.16 µM
- GI50 [9]: 0.365 µM
- TGI [9]: 5.06 µM
- GI50 [10]: 3.36 µM
- TGI [10]: 16.4 µM
- GI50 [11]: 0.273 µM
- TGI [11]: 11.3 µM
- GI50 [12]: 0.0614 µM
- TGI [12]: 12.7 µM
- GI50 [13]: 0.325 µM
- TGI [13]: 12.7 µM
- GI50 [14]: 2.49 µM
- TGI [14]: 16.6 µM
- GI50 [15]: 0.522 µM
- TGI [15]: 4.02 µM
- GI50 [16]: 1.47 µM
- TGI [16]: 11.6 µM
- GI50 [17]: 0.302 µM
- TGI [17]: 3.22 µM
- GI50 [18]: 0.251 µM
- TGI [18]: 2.47 µM
- GI50 [19]: 2.03 µM
- TGI [19]: 17.2 µM
- GI50 [20]: 2.96 µM
- TGI [20]: 20.3 µM
- GI50 [21]: 0.709 µM
- TGI [21]: 11.6 µM
- GI50 [22]: 1.71 µM
- TGI [22]: 10.7 µM
- GI50 [23]: 1.43 µM
- TGI [23]: 24.8 µM
- GI50 [24]: 5.4 µM
- TGI [24]: 27.5 µM
- GI50 [25]: 1.05 µM
- TGI [25]: 13.4 µM
- GI50 [26]: 0.644 µM
- TGI [26]: 19.8 µM
- GI50 [27]: 0.684 µM
- TGI [27]: 10.1 µM
- GI50 [28]: 0.445 µM
- TGI [28]: 11.3 µM
- GI50 [29]: 3.28 µM
- TGI [29]: 15.9 µM
- GI50 [30]: 0.159 µM
- TGI [30]: 0.873 µM
- GI50 [31]: 1.06 µM
- TGI [31]: 4.87 µM
- GI50 [32]: 0.0557 µM
- TGI [32]: 23.5 µM
- GI50 [33]: 0.319 µM
- TGI [33]: 7.59 µM
- GI50 [34]: 1.97 µM
- TGI [34]: 13.6 µM
- GI50 [35]: 0.584 µM
- TGI [35]: 13.5 µM
- GI50 [36]: 0.847 µM
- TGI [36]: 12.3 µM
- GI50 [37]: 56.6 µM
- TGI [37]: > 100 µM
- GI50 [38]: 0.513 µM
- TGI [38]: 3.09 µM
- GI50 [39]: 0.0567 µM
- TGI [39]: 10.7 µM
- GI50 [40]: 0.0609 µM
- TGI [40]: 1.51 µM
- GI50 [41]: 9.43 µM
- TGI [41]: > 100 µM
- GI50 [42]: 0.408 µM
- TGI [42]: 8.53 µM
- GI50 [43]: 0.19 µM
- TGI [43]: 0.789 µM
- GI50 [44]: 0.312 µM
- TGI [44]: 12.8 µM
- GI50 [45]: 1.8 µM
- TGI [45]: 33 µM
- GI50 [46]: 0.456 µM
- TGI [46]: 3.62 µM
- GI50 [47]: 0.97 µM
- TGI [47]: 4.64 µM
- GI50 [48]: 2.53 µM
- TGI [48]: 18.5 µM
- GI50 [49]: 0.276 µM
- TGI [49]: 2.34 µM
- GI50 [50]: 2.5 µM
- TGI [50]: 36.3 µM
- GI50 [51]: 0.326 µM
- TGI [51]: 2.9 µM
- GI50 [52]: 3.06 µM
- TGI [52]: 16.2 µM
- GI50 [53]: 22.2 µM
- TGI [53]: > 100 µM
- GI50 [54]: 6.43 µM
- TGI [54]: 74.4 µM
- GI50 [55]: 0.362 µM
- TGI [55]: 2.31 µM
- GI50 [56]: 0.911 µM
- TGI [56]: 10.8 µM
- GI50 [57]: 0.612 µM
- TGI [57]: 10.3 µM

SMILES: O=C1NC(=O)C(=Cc2cn(Cc3ccccc3)c3ccccc23)C(=O)N1
- GI50 [1]: 8.23 µM
- TGI [1]: > 61.3 µM
- GI50 [2]: 15 µM
- TGI [2]: 30.6 µM
- GI50 [3]: 4.09 µM
- TGI [3]: 20 µM
- GI50 [4]: 18.1 µM
- TGI [4]: 45.7 µM
- GI50 [5]: 20.5 µM
- TGI [5]: > 67.2 µM
- GI50 [6]: 13.5 µM
- TGI [6]: 40 µM
- GI50 [7]: 10.9 µM
- TGI [7]: 29.5 µM
- GI50 [8]: 13 µM
- TGI [8]: 30.7 µM
- GI50 [9]: 34.3 µM
- TGI [9]: > 100 µM
- GI50 [10]: 17.9 µM
- TGI [10]: 42.3 µM
- GI50 [11]: 16.2 µM
- TGI [11]: 38.9 µM
- GI50 [12]: 10.6 µM
- TGI [12]: 30.5 µM
- GI50 [13]: 17.5 µM
- TGI [13]: 40.4 µM
- GI50 [14]: 4.23 µM
- TGI [14]: > 48.6 µM
- GI50 [15]: 19.8 µM
- TGI [15]: 53.9 µM
- GI50 [16]: 15.4 µM
- TGI [16]: 50.1 µM
- GI50 [17]: 13.1 µM
- TGI [17]: 37.2 µM
- GI50 [18]: 12.8 µM
- TGI [18]: 28.9 µM
- GI50 [19]: 11.4 µM
- TGI [19]: 30.8 µM
- GI50 [20]: 4.84 µM
- TGI [20]: 21 µM
- GI50 [21]: 23.5 µM
- TGI [21]: > 60.8 µM
- GI50 [22]: 15.9 µM
- TGI [22]: 31.5 µM
- GI50 [23]: 0.332 µM
- TGI [23]: 2.15 µM
- GI50 [24]: 12 µM
- TGI [24]: 31 µM
- GI50 [25]: 1.13 µM
- TGI [25]: 9.44 µM
- GI50 [26]: 6.3 µM
- TGI [26]: 29 µM
- GI50 [27]: 7.61 µM
- TGI [27]: 27.1 µM
- GI50 [28]: 1.39 µM
- TGI [28]: 34.5 µM
- GI50 [29]: 6.41 µM
- TGI [29]: 28.3 µM
- GI50 [30]: 21.4 µM
- TGI [30]: 81.6 µM
- GI50 [31]: 0.125 µM
- TGI [31]: 0.594 µM
- GI50 [32]: 12.9 µM
- TGI [32]: 32.9 µM
- GI50 [33]: 1.5 µM
- TGI [33]: 19.9 µM
- GI50 [34]: 8.71 µM
- TGI [34]: 29.3 µM
- GI50 [35]: 15.8 µM
- TGI [35]: 32.9 µM
- GI50 [36]: 17.9 µM
- TGI [36]: 44.4 µM
- GI50 [37]: 18.4 µM
- TGI [37]: 50.3 µM
- GI50 [38]: 14.1 µM
- TGI [38]: 34.2 µM
- GI50 [58]: 2.16 µM
- TGI [58]: 8.58 µM
- GI50 [39]: 6.54 µM
- TGI [39]: 23 µM
- GI50 [40]: 0.264 µM
- TGI [40]: 13.4 µM
- GI50 [41]: 14.3 µM
- TGI [41]: 38.2 µM
- GI50 [42]: 15.2 µM
- TGI [42]: 37.7 µM
- GI50 [43]: 0.951 µM
- TGI [43]: 3.29 µM
- GI50 [44]: 12.1 µM
- TGI [44]: 28.9 µM
- GI50 [45]: 0.489 µM
- TGI [45]: 10.5 µM
- GI50 [46]: 17.1 µM
- TGI [46]: 33 µM
- GI50 [47]: 11.6 µM
- TGI [47]: 48.3 µM
- GI50 [48]: 7.07 µM
- TGI [48]: 35.1 µM
- GI50 [49]: 14.1 µM
- TGI [49]: 33.1 µM
- GI50 [50]: 5.75 µM
- TGI [50]: 19.4 µM
- GI50 [51]: 2.07 µM
- TGI [51]: 15.7 µM
- GI50 [52]: 15.2 µM
- TGI [52]: 43.9 µM
- GI50 [53]: 2.15 µM
- TGI [53]: 10.5 µM
- GI50 [54]: 21.3 µM
- TGI [54]: > 63.5 µM
- GI50 [55]: 11.3 µM
- TGI [55]: > 55.5 µM
- GI50 [56]: 17.1 µM
- TGI [56]: 43.8 µM
- GI50 [57]: 11.7 µM
- TGI [57]: 27.5 µM
